# Assay results as given in ChEMBL document CHEMBL1201862, “PubChem BioAssay data set” (2004).
# The source made the active and inactive calls.
# Legend:
# Candida albicans [1] = experiment: growth inhibition of azole-resistant C. albicans, dose response, CaCi-8 strain, Alamar Blue, dry powder, set 3 (AID 488905); format: functional, organism-based
# Candida albicans [2] = experiment: reversal of fluconazole resistance in C. albicans, dose response, CaCi-2 strain, Alamar Blue, dry powder, set 3 (AID 488907); format: functional, organism-based
# [3] = biological target: Cyclin-dependent kinase 2 (Homo sapiens, UniProt P24941); experiment: CDK2 kinase inhibitors, off-target check, dose response, selectivity assay for Dyrk1A inhibitor project, biochemical, cherry-picked samples (AID 602127)
# [4] = biological target: Dual specificity protein kinase CLK1 (Homo sapiens, UniProt P49759); experiment: CLK1 kinase inhibitors, off-target check, dose response, selectivity assay for Dyrk1A inhibitor project, biochemical, cherry-picked samples (AID 588811)
# Sequence of Dual specificity protein kinase CLK1 (P49759 whole entry, the tested form may be a part): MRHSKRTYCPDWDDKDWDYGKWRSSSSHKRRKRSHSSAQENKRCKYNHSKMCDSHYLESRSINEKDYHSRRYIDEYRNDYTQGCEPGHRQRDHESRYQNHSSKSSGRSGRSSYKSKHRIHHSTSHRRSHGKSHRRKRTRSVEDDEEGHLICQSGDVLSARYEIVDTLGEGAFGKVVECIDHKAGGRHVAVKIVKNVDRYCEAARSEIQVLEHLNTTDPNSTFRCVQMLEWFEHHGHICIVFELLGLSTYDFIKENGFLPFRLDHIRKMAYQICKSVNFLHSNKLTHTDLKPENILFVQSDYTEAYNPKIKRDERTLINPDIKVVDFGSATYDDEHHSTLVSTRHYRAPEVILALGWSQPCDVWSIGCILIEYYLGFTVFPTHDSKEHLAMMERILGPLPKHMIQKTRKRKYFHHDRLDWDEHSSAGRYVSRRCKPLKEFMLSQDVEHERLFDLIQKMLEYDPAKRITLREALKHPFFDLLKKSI
# Hexokinase-1 = Hexokinase-1 (Homo sapiens, UniProt P19367); experiment: SAR analysis of small molecule inhibitors of hexokinase domain containing I (HKDC1) in the hexokinase 1 selectivity assay. [Related pubchem assays (depositor defined):AID493160, AID493190]; format: functional
# Sequence of Hexokinase-1 (P19367 whole entry, the tested form may be a part): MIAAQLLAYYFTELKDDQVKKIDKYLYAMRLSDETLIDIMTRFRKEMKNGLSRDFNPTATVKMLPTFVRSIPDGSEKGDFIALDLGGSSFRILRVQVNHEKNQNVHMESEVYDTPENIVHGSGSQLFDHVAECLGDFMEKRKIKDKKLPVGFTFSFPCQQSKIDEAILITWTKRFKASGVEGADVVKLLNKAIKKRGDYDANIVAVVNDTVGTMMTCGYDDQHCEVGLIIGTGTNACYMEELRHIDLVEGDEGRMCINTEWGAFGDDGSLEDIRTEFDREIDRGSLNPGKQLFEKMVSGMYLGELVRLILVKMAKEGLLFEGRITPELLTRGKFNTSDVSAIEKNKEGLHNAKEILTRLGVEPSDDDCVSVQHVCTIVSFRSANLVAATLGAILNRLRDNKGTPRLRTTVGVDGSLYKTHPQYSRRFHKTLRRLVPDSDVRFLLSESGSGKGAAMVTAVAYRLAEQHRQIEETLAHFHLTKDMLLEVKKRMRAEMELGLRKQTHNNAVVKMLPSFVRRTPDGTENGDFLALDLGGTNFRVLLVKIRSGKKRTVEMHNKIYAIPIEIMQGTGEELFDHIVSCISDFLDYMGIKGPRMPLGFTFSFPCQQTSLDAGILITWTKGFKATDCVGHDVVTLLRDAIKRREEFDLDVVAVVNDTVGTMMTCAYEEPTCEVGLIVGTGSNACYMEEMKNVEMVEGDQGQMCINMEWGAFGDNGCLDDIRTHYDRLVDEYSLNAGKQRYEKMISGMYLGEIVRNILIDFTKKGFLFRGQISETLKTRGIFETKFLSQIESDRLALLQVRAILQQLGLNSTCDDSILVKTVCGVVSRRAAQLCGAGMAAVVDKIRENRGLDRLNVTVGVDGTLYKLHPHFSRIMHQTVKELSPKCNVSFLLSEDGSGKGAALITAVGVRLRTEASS
# Hexokinase HKDC1 = biological target: T1, Hexokinase HKDC1 (Homo sapiens, UniProt Q2TB90); experiment: SAR analysis of small molecule inhibitors of hexokinase domain containing I (HKDC1). [Related pubchem assays (depositor defined):AID493160, AID493190]; format: functional
# T1 sequence (Q2TB90 whole entry): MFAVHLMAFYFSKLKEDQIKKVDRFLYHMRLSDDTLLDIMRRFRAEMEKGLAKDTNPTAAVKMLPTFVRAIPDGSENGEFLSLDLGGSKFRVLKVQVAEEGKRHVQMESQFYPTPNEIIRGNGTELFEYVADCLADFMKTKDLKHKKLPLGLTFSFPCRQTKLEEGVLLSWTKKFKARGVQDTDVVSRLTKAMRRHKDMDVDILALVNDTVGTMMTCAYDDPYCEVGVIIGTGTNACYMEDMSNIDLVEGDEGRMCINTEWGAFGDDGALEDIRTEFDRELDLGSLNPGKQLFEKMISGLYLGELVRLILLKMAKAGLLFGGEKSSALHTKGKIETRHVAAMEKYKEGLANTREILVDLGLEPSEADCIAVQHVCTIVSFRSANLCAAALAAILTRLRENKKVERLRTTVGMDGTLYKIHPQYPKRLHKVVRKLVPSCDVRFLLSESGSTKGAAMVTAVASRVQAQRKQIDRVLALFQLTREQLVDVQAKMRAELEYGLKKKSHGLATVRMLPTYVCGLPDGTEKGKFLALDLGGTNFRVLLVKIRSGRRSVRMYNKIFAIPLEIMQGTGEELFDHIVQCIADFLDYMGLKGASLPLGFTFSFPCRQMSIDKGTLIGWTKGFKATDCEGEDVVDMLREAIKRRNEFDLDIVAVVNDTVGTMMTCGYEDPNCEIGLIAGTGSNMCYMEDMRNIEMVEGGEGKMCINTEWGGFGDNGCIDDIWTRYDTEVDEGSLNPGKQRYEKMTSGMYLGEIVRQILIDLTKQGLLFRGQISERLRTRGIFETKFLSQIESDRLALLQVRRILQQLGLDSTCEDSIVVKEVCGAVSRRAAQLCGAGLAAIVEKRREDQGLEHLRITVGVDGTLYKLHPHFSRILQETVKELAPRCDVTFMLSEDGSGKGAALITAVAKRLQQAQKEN
smiles,measurement,setting,value
Cc1ccc(C(=O)N2CCN(c3ccccn3)CC2)cc1,AC50,Candida albicans [1],10.4 µM (active)
same,AC50,Candida albicans [2],0.0979 µM (active)
c1cncc(CNc2nccc(-c3ccc4[nH]ncc4c3)n2)c1,AC50,[3],3.52 µM (active)
same,AC50,[4],0.0402 µM (active)
O=c1c2ccccc2nc(/C=C/c2cccnc2)n1-c1ccccc1,IC50,Hexokinase-1,> 80 µM (inactive)
same,IC50,Hexokinase HKDC1,> 80 µM (inactive)
